Experimental data as given in US6211244A, “Calcium receptor-active compounds” (priority 1995, dated 2001).
Read-outs that look alike come from different tables or passages of the source.

Target: T1, human calcium receptor (Homo sapiens, UniProt P41180, R990G)
T1 construct: expressed in transfected cells; host or cells: HEK 293
T1 sequence (P41180 20-1078 R990G): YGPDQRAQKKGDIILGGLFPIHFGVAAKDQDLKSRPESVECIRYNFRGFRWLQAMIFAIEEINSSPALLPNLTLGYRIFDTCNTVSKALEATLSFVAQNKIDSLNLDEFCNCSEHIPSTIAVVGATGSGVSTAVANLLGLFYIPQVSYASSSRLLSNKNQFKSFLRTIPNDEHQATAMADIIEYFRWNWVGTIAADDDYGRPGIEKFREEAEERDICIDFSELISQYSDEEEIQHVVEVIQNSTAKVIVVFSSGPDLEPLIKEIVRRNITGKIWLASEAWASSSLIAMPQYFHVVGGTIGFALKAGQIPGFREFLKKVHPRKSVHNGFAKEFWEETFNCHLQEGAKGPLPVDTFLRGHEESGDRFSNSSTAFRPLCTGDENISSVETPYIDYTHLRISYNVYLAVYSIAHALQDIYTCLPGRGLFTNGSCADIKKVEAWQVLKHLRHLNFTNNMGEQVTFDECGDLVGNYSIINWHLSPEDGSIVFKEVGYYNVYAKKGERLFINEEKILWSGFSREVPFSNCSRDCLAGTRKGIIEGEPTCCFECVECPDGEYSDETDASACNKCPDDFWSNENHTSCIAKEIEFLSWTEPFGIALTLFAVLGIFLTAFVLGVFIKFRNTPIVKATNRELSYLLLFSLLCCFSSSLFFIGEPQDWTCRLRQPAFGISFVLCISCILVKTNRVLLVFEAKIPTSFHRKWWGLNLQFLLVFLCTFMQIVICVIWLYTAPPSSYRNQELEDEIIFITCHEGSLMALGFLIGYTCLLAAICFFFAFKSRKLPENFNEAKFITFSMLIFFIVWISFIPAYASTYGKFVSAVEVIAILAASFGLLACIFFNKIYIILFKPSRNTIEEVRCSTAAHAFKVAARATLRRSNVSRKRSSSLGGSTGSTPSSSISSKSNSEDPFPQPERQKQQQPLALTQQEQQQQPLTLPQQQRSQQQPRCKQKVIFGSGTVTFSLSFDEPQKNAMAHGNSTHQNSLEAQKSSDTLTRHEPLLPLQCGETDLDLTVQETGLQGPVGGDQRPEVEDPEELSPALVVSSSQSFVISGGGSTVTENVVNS
Assay: increases in [Ca^2+ ]i in HEK-293 cells expressing the human calcium receptor (fura-2 loaded HEK 293/pHuPCaR4.0 cells), % activity
Type: cell-based

Row | SMILES | % activity (33 ng/mL) [%] | % activity (330 ng/mL) [%] | % activity (3300 ng/mL) [%] | % activity
1 | COc1cccc(C(C)NC(C)c2cccc(OC)c2)c1 (centres unmarked) [Compound 16N] | 82 | 159 | 122 | –
2 | COc1cccc(C(C)NCCCC2CCCCC2)c1 (centres unmarked) [Compound 7X] | – | 85 | – | –
3 | COc1cccc([C@@H](C)NC(C)CCc2ccccc2Cl)c1 (some centres unmarked) [21C = 4U] | 76 | 114 | 134 | –
4 | CC(=O)c1ccc(CN[C@H](C)c2cccc3ccccc23)cc1 [Compound 17C] | 99 | 120 | 113 | –
5 | COc1ccc([C@@H](C)N[C@H](C)c2cccc(OC)c2)cc1 [Compound 16L, (R,R)-N-[1-(4-methoxyphenyl)ethyl]-1-(3-methoxyphenyl)ethylamine] | 98 | 138 | 146 | –
6 | CC(NCCC(c1ccccc1)c1ccccc1)c1ccccc1C(F)(F)F (centres unmarked) [Compound 3D] | 4 | – | – | 45
7 | COc1cccc([C@@H](C)NCCc2ccccc2)c1 [Compound 25Q] | 77 | 95 | 116 | –
8 | CC(NC(C)c1cc2ccccc2c2ccccc12)c1cccc2ccccc12 (centres unmarked) [10S/10T] | 65 | 86 | – | –
9 | COc1cccc([C@@H](C)NCCCc2cccc(C(F)(F)F)c2)c1 [Compound 21P] | 56 | 92 | – | –
10 | CSc1cccc(C(C)NCCCc2ccccc2Cl)c1 (centres unmarked) [Compound 8K] | 81 | 98 | – | –
11 | Cc1ccccc1C(C)NCCC(c1ccccc1)c1ccccc1 (centres unmarked) [Compound 3L] | 28 | 81 | – | –
12 | CCc1ccc(CN[C@H](C)c2cccc3ccccc23)cc1 [Compound 13N] | 88 | 114 | – | –
13 | COc1ccc(CNC(C)c2ccccc2)cc1C (centres unmarked) [Compound 23G] | 67 | 93 | 127 | –
14 | COc1ccc(CNC(C)c2ccc(Cl)cc2)cc1C (centres unmarked) [Compound 23O] | 46 | 79 | 111 | –
15 | COc1ccc(C(NC(C)c2cccc3ccccc23)C2CC2)cc1 (single isomer, unassigned) [Compound 17I] | 76 | 97 | 118 | –
16 | C[C@@H](NCCCc1ccccc1Cl)c1cccc(OC(F)(F)F)c1 [Compound 7U] | – | 49 | – | –
17 | CCCOc1cccc([C@@H](C)NCCCc2ccccc2Cl)c1 [Compound 21S] | 85 | 131 | 132 | –
18 | COc1cccc(CCNC(C)c2cccc3ccccc23)c1 (centres unmarked) [Compound 15I] | 75 | 93 | 111 | –
19 | COc1ccc(C(C)NC(C)c2cccc3ccccc23)cc1 (centres unmarked) [Compound 16J] | 47 | 76 | 92 | –

Row | SMILES | % activity (33 ng/mL) [%] | % activity (330 ng/mL) [%] | % activity (3300 ng/mL) [%] | % activity
20 | C[C@@H](NCc1ccc(C(F)(F)F)cc1)c1cccc2ccccc12 [Compound 17F] | 90 | 111 | – | –
21 | C[C@@H](NCCc1ccccc1)c1cccc2ccccc12 [Compound 14N] | 55 | 89 | – | –
22 | CCOc1ccc(CN[C@H](C)c2cccc3ccccc23)cc1Cl [Compound 24Y] | 127 | 120 | 119 | –
23 | CCOC(=O)COc1cccc(C(C)NCc2ccc(OC)c(C)c2)c1 (centres unmarked) [Compound 24V] | 71 | 98 | 127 | –
24 | COc1ccc(CNCc2ccccc2OC)cc1C [Compound 17V] | 27 | 66 | 91 | –
25 | CC(NC(C)c1ccc2ccccc2c1)c1ccc(C(C)(C)C)cc1 (mixture of isomers) [Compound 13I] | 3 | 52 | 85 | –
26 | CC(NCCCc1ccccc1)c1ccccc1 (centres unmarked) [Compound 1D] | – | 53 | – | –
27 | COc1cccc([C@@H](C)NCc2ccc(C(C)C)cc2)c1 [Compound 11Y] | 61 | 103 | – | –
28 | COc1ccc(CNC(C)c2ccc(C)c(C)c2)cc1C (centres unmarked) [Compound 24G] | 75 | 94 | 109 | –
29 | COc1cccc(C(C)NC(C)c2cccc(OC)c2)c1 (centres unmarked) [Compound 16O] | 21 | 81 | 129 | –
30 | COc1cccc([C@@H](C)NCC=Cc2ccccc2C)c1 [Compound 12C, (R)-N-[3-(2-methylphenyl)prop-2-enyl]-1-(3-methoxyphenyl)ethylamine] | 98 | 125 | 134 | –
31 | COc1ccc(CNC(C)c2ccccc2Br)cc1C (centres unmarked) [Compound 23P] | 70 | 99 | 125 | –
32 | COc1cccc([C@@H](C)NCC(C)c2ccccc2)c1 (some centres unmarked) [Compound 25M] | 79 | 100 | 118 | –
33 | Cc1ccc([C@@H](C)N[C@H](C)c2cccc3ccccc23)cc1C [Compound 17N] | 86 | 108 | – | –
34 | CC(NCc1cccc(OCc2ccccc2)c1)c1cccc2ccccc12 (centres unmarked) [Compound 12J] | 113 | 130 | 131 | –
35 | CC(=O)c1cccc(C(C)NCCCc2ccccc2)c1 (centres unmarked) [Compound 7W] | – | 76 | – | –
36 | C[C@@H](NCc1ccc(Cl)cc1)c1cccc2ccccc12 [Compound 13O] | 94 | 115 | – | –
37 | CC(C)Cc1ccc(C(C)CNC(C)c2cccc3ccccc23)cc1 (centres unmarked) [Compound 13Z] | 22 | 54 | 93 | –
38 | COc1cccc([C@@H](C)NCC=Cc2ccc(C)cc2C)c1 [Compound 12F, (R)-N-[3-(2,4-dimethylphenyl)prop-2-enyl]-1-(3-methoxyphenyl)ethylamine] | 101 | 110 | 118 | –
